Our source for the melting point values is patent US6951943B2, “Process for the preparation of phenylalanine enamide derivatives” (Celltech R & D Limited, priority 2002, dated 2005).

The structures appear in SMILES notation.

A word on the melting point: it is the temperature of the solid-liquid transition. The compound `CCOC(=O)[C@H](Cc1ccc(NC(=O)c2c(Cl)cncc2Cl)cc1)NC1=CC(=O)C12CCCCC2` [Example 1, Ethyl 2(S)-[(3-oxospiro[3.5]non-1-en-1-yl)amino]-3-{4-[(3,5-dichloroisonicotinoyl)amino]phenyl}propanoate] had a melting point of 194 °C.

`CCOC(=O)[C@H](Cc1ccc(Nc2nccc3ccncc23)cc1)NC1=CC(=O)C12CCOCC2` [Example 9, Ethyl 3-[4-([2,7]naphthyridin-1-ylamino)phenyl]-2(S)-[(3-oxo-7-oxa-spiro[3.5]non-1-en-1-yl)amino]propanoate] came in with a melting point of 112 °C.

`CCOC(=O)[C@H](Cc1ccc(Nc2nccc3ccncc23)cc1)NC1=C(SC(C)C)C(=O)C12CCOCC2` [Example 10, Ethyl 2(S)-[(2-isopropylsulfanyl-3-oxo-7-oxa-spiro[3.5]non-1-en-1-yl)amino]-3-[4-([2,7]naphthyridin-1-ylamino)phenyl]propanoate]: the melting point came to 221 °C.
